Target: TRKA (Homo sapiens (Human), UniProt P04629)
Assay: Isolated TRK enzyme assay (HTRF KinEASE-TK), TRKA
Format: biochemical
Details: read-out: Trka enzyme (IC50)

Sequence of TRKA (P04629 441-796): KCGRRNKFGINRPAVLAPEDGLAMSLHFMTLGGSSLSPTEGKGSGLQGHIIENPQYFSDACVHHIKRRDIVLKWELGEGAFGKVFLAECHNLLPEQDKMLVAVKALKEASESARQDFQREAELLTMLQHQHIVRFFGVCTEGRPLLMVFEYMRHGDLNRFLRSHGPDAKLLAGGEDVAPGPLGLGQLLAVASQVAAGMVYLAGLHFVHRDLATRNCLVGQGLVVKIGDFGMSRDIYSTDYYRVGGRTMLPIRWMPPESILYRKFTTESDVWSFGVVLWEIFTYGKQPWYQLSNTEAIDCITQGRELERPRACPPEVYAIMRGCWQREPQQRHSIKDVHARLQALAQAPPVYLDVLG

Compound | IC50 [nM]
Cc1nonc1C(=O)Nc1cncc(C(=O)c2cn(C(C)C)c3ncncc23)c1 [Example 381, 4-Methyl-furazan-3-carboxylic acid [5-(7-isopropyl-7H-pyrrolo[2,3-d]pyrimidine-5-carbonyl)-pyridin-3-yl]-amide] | 2780
CC(C)n1cc(C(=O)c2cncc(NC(=O)c3nccn3C)c2)c2cncnc21 [Example 468, 1-Methyl-1H-imidazole-2-carboxylic acid [5-(7-isopropyl-7H-pyrrolo[2,3-d]pyrimidine-5-carbonyl)-pyridin-3-yl]-amide] | 5100
Cc1ccnn1CC(=O)Nc1cncc(C(=O)c2cn(C(C)C)c3ncncc23)c1 [Example 130, N-{5-[(7-isopropyl-7H-pyrrolo[2,3-d]pyrimidin-5-yl)carbonyl]pyridin-3-yl}-2-(5-methyl-1H-pyrazol-1-yl)acetamide] | 284
CC(C)n1cc(C(=O)c2cncc(NC(=O)c3cnc4ccnn4c3)c2)c2cncnc21 [Example 415, Pyrazolo[1,5-a]pyrimidine-6-carboxylic acid [5-(7-isopropyl-7H-pyrrolo[2,3-d]pyrimidine-5-carbonyl)-pyridin-3-yl]-amide] | 2590
CC(C)n1cc(C(=O)c2cncc(NC(=O)Cc3ccc(C#N)c(F)c3)c2)c2cncnc21 [Example 76, 2-(4-cyano-3-fluorophenyl)-N-{5-[(7-isopropyl-7H-pyrrolo[2,3-d]pyrimidin-5-yl)carbonyl]pyridin-3-yl}acetamide] | 173
O=C(Nc1cncc(C(=O)c2cn(C(CO)CO)c3ncncc23)c1)c1cc(F)cc(C(F)(F)F)c1 [Example 281, 3-fluoro-N-[5-({7-[2-hydroxy-1-(hydroxymethyl)ethyl]-7H-pyrrolo[2,3-d]pyrimidin-5-yl}carbonyl)pyridin-3-yl]-5-(trifluoromethyl)benzamide] | 161
Cc1nccn1CC(=O)Nc1cncc(C(=O)c2cn(C(C)C)c3ncncc23)c1 [Example 359, N-[5-(7-Isopropyl-7H-pyrrolo[2,3-d]pyrimidine-5-carbonyl)-pyridin-3-yl]-2-(2-methyl-imidazol-1-yl)-acetamide] | 9800
CC(C)(CO)n1cc(C(=O)c2cncc(NC(=O)Cc3cccc(S(C)(=O)=O)c3)c2)c2cnc(N)nc21 [Example 258, N-(5-{[2-amino-7-(2-hydroxy-1,1-dimethylethyl)-7H-pyrrolo[2,3-d]pyrimidin-5-yl]carbonyl}pyridin-3-yl)-2-[3-(methylsulfonyl)phenyl]acetamide] | 11.8
CC(C)n1cc(C(=O)c2cncc(NC(=O)c3cc4cnccc4o3)c2)c2cncnc21 [Example 453, Furo[3,2-c]pyridine-2-carboxylic acid [5-(7-isopropyl-7H-pyrrolo[2,3-d]pyrimidine-5-carbonyl)-pyridin-3-yl]-amide] | 634
CC(C)n1cc(C(=O)c2cncc(NC(=O)c3ccnn3C)c2)c2cncnc21 [Example 397, 2-Methyl-2H-pyrazole-3-carboxylic acid [5-(7-isopropyl-7H-pyrrolo[2,3-d]pyrimidine-5-carbonyl)-pyridin-3-yl]-amide] | 9800
CN(C(=O)Cc1ccc(Cl)cc1)c1cncc(C(=O)c2cn(C(C)(C)C)c3ncncc23)c1 [Example 544, N-[5-(7-tert-Butyl-7H-pyrrolo[2,3-d]pyrimidine-5-carbonyl)-pyridin-3-yl]-2-(4-chloro-phenyl)-N-methyl-acetamide] | 31.6
CC(C)n1cc(C(=O)c2cncc(NC(=O)c3cnn(CCC#N)c3)c2)c2cncnc21 [Example 452, 1-(2-Cyano-ethyl)-1H-pyrazole-4-carboxylic acid [5-(7-isopropyl-7H-pyrrolo[2,3-d]pyrimidine-5-carbonyl)-pyridin-3-yl]amide] | 542
COCC(C)(C)n1cc(C(=O)c2cncc(NC(=O)Cn3ccc(C4CC4)n3)c2)c2cncnc21 [Example 538, 2-(3-Cyclopropyl-pyrazol-1-yl)-N-{5-[7-(2-methoxy-1,1-dimethyl-ethyl)-7H-pyrrolo[2,3-d]pyrimidine-5-carbonyl]-pyridin-3-yl}-acetamide] | 1.51
Cc1cccc(C(=O)Nc2cncc(C(=O)c3cn(C(C)C)c4ncncc34)c2)n1 [Example 440, 6-Methyl-pyridine-2-carboxylic acid[5-(7-isopropyl-7H-pyrrolo[2,3-d]pyrimidine-5-carbonyl)-pyridin-3-yl]-amide] | 676
CC(C)n1cc(C(=O)c2cncc(NC(=O)Cn3nnnc3-c3ccccc3)c2)c2cncnc21 [Example 378, N-[5-(7-Isopropyl-7H-pyrrolo[2,3-d]pyrimidine-5-carbonyl)-pyridin-3-yl]-2-(5-phenyl-tetrazol-1-yl)-acetamide] | 716
O=C(Cc1ccc(C(F)(F)F)cc1)Nc1cncc(C(=O)c2cn(C3(CO)COC3)c3ncncc23)c1 [Example 300, N-{5-[7-(3-Hydroxymethyl-oxetan-3-yl)-7H-pyrrolo[2,3-d]pyrimidine-5-carbonyl]-pyridin-3-yl}-2-(4-trifluoromethyl-phenyl)-acetamide] | 52.2

Compound | IC50 [nM]
Cn1cc(C(=O)c2cncc(NC(=O)Cc3cccc(OC(F)(F)F)c3)c2)c2cncnc21 [Example 176, N-{5-[(7-methyl-7H-pyrrolo[2,3-d]pyrimidin-5-yl)carbonyl]pyridin-3-yl}-2-[3-(trifluoromethoxy)phenyl]acetamide] | 165
C[C@@H](CO)n1cc(C(=O)c2cncc(NC(=O)Cc3ccc(F)c(F)c3)c2)c2cncnc21 [Example 535, 2-(3,4-Difluoro-phenyl)-N-{5-[7-((S)-2-hydroxy-1-methyl-ethyl)-7H-pyrrolo[2,3-d]pyrimidine-5-carbonyl]-pyridin-3-yl}-acetamide] | 51.2
CC(C)n1cc(C(=O)c2cncc(NC(=O)Cn3ccc(C4CC4)n3)c2)c2cnc(N)nc21 [Example 253, N-{5-[(2-amino-7-isopropyl-7H-pyrrolo[2,3-d]pyrimidin-5-yl)carbonyl]pyridin-3-yl}-2-(3-cyclopropyl-1H-pyrazol-1-yl)acetamide] | 3.92
Cc1nc2ccccc2n1CC(=O)Nc1cncc(C(=O)c2cn(C(C)C)c3ncncc23)c1 [Example 127, N-{5-[(7-isopropyl-7H-pyrrolo[2,3-d]pyrimidin-5-yl)carbonyl]pyridin-3-yl}-2-(2-methyl-1H-benzimidazol-1-yl)acetamide] | 1330
Cc1nc2ncccn2c1C(=O)Nc1cncc(C(=O)c2cn(C(C)C)c3ncncc23)c1 [Example 461, 2-Methyl-imidazo[1,2-a]pyrimidine-3-carboxylic acid [5-(7-isopropyl-7H-pyrrolo[2,3-d]pyrimidine-5-carbonyl)-pyridin-3-yl]-amide] | 9800
CC(C)n1cc(C(=O)c2c[nH]c(=O)c(NC(=O)Cc3coc(C4CC4)n3)c2)c2cncnc21 [Example 586, 2-(2-cyclopropyl-1,3-oxazol-4-yl)-N-(2-oxo-5-{[7-(propan-2-yl)-7H-pyrrolo[2,3-d]pyrimidin-5-yl]carbonyl}-1,2-dihydropyridin-3-yl)acetamide] | 1000
CC(C)n1cc(C(=O)c2cncc(NC(=O)c3csc(C4CCC4)n3)c2)c2cncnc21 [Example 459, 2-Cyclobutyl-thiazole-4-carboxylic acid [5-(7-isopropyl-7H-pyrrolo[2,3-d]pyrimidine-5-carbonyl)-pyridin-3-yl]-amide] | 4.06
CC(C)n1cc(C(=O)c2cncc(NC(=O)c3cccc(Cl)c3)c2)c2cncnc21 [Example 343, 3-chloro-N-(5-{[7-(propan-2-yl)-7H-pyrrolo[2,3-d]pyrimidin-5-yl]carbonyl}pyridin-3-yl)benzamide] | 53.9
CC(C)n1cc(C(=O)c2cncc(NC(=O)c3cc(C4CC4)n[nH]3)c2)c2cncnc21 [Example 497, 5-Cyclopropyl-2H-pyrazole-3-carboxylic acid [5-(7-isopropyl-7H-pyrrolo[2,3-d]pyrimidine-5-carbonyl)-pyridin-3-yl]-amide] | 43.5
CC(C)(C)n1cc(C(=O)c2cncc(NC(=O)Cc3ccc(C#N)cn3)c2)c2cnc(N)nc21 [Example 530, N-[5-(2-Amino-7-tert-butyl-7H-pyrrolo[2,3-d]pyrimidine-5-carbonyl)-pyridin-3-yl]-2-(5-cyano-pyridin-2-yl)-acetamide] | 5.9
O=C(Cc1ccc(C(F)(F)F)c(F)c1)Nc1cncc(C(=O)c2cn(C(CO)CO)c3ncncc23)c1 [Example 277, 2-[3-fluoro-4-(trifluoromethyl)phenyl]-N-[5-({7-[2-hydroxy-1-(hydroxymethyl)ethyl]-7H-pyrrolo[2,3-d]pyrimidin-5-yl}carbonyl)pyridin-3-yl]acetamide] | 434
CC(C)n1cc(C(=O)c2cncc(NC(=O)c3ncncc3Br)c2)c2cncnc21 [Example 472, 5-Bromo-pyrimidine-4-carboxylic acid [5-(7-isopropyl-7H-pyrrolo[2,3-d]pyrimidine-5-carbonyl)-pyridin-3-yl]-amide] | 1720
CC(C)n1cc(C(=O)c2cncc(NC(=O)c3cocn3)c2)c2cncnc21 [Example 493, Oxazole-4-carboxylic acid [5-(7-isopropyl-7H-pyrrolo[2,3-d]pyrimidine-5-carbonyl)-pyridin-3-yl]-amide] | 848
CC(C)n1cc(C(=O)c2cncc(NC(=O)c3n[nH]c4ccc(F)cc34)c2)c2cncnc21 [Example 512, 5-Fluoro-1H-indazole-3-carboxylic acid [5-(7-isopropyl-7H-pyrrolo[2,3-d]pyrimidine-5-carbonyl)-pyridin-3-yl]-amide] | 12.6
CC(C)(CO)n1cc(C(=O)c2cncc(NC(=O)Cc3ncc(Cl)cc3F)c2)c2cnc(N)nc21 [Example 560, N-{5-[2-Amino-7-(2-hydroxy-1,1-dimethyl-ethyl)-7H-pyrrolo[2,3-d]pyrimidine-5-carbonyl]-pyridin-3-yl}-2-(5-chloro-3-fluoro-pyridin-2-yl)-acetamide] | 1610
CC(C)n1cc(C(=O)c2cncc(NC(=O)C(N)c3ccc(Cl)cc3)c2)c2cncnc21 (centres unmarked) [Example 350, 2-amino-2-(4-chlorophenyl)-N-(5-(7-isopropyl-7H-pyrrolo[2,3-d]pyrimidine-5-carbonyl)pyridin-3-yl)acetamide] | 153

From US8846698B2, “Pyrrolo[2,3-d]pyrimidine tropomysin-related kinase inhibitors” (Pfizer Limited, priority 2011, dated 2014)
